Assay [1] deals with T1, Salmonella typhimurium tryptophan synthase holoenzyme (α2β2), TSα reaction (Salmonella typhimurium, UniProt P00929).
T1 construct: made in house; host or cells: E. coli strain CB149pSTB7
Nature of the assay: Inhibition of tryptophan synthase by the TSα reaction, microtiter kinetic coupled enzyme assay. The format is biochemical. The source says: Inhibitors of TS were identified by their ability to inhibit the production of glyceraldehyde-3-P by the TSα reaction of the Salmonella typhimurium holoenzyme (α2β2) in the presence of a limiting amount of indole-3-glycerolphosphate and an excess of serine
The assay was developed as a new microtiter plate kinetic enzyme assay based on the combined methods of Creighton (EurJBch 13:1-10, 1970) and Creighton and Yanofsky (JBC 241:980, 1966) with modifications. The rate of glyceraldehyde production was measured as the linear […] (spectrophotometric absorbance at 340 nm) in the presence of glyceraldehyde-3-phosphate dehydrogenase in a coupled enzyme assay.
The assay solution contained a test inhibitor compound, 50 mM Tris-Cl (pH 7.8), 6 mM sodium arsenate, 5 μg/ml pyridoxal phosphate, 0.5 mM DTT, 0.18M NaCl, 60 mM serine, 1.6 mM NAD+, 8 e.u./ml yeast glyceraldehyde-3-phosphate dehydrogenase (Sigma, Catalog #G2647; Kirschner et al., Eur J Bch, 1975, 60:513 and approximately 1.5 e.u. Salmonella TS. 100 μM IGP was added to start the reaction, which was run at 37° C. and using 300 μl per assay in a microtiter plate.
The substrate IGP was used at 1.5 to 2 times its Km concentration to enhance the likelihood of identifying weak inhibitors, binding at the substrate binding site. This approach to identifying enzyme inhibitors was novel, since an excess of all substrates, (at least 5-times the Km value of each), is conventionally used in the measurement of enzyme activity.
Potential inhibitors were evaluated by adding 100 μM inhibitor (equimolar to substrate IGP):or less, in a 1:1 dilution series down from 100 μM, until the inhibition measured was less than 15%. Reaction rates at Vmax were compared in the presence and absence of inhibitors.
In addition, some weaker inhibitors were identified following preincubation of the inhibitor with the TS assay mix for 24 hrs prior to the addition of IGP. The identifying weaker inhibitors is to aid in a quantitative structure activity relationship (QSAR) evaluation, or to identify new herbicidal inhibitor leads. The previously known inhibitor IPP was used as a standard in all tests, where the I50 for IPP was 1-2 uM.

For the next assay, the target named is T2, Arabidopsis TS enzyme (Arabidopsis thaliana, UniProt Q42529).
T2 construct: GST (N, cleaved yes); made in house; host or cells: E. coli DH5α (pGEX-2T constructs)
T2 sequence (Q42529 with tags, fused parts or gaps): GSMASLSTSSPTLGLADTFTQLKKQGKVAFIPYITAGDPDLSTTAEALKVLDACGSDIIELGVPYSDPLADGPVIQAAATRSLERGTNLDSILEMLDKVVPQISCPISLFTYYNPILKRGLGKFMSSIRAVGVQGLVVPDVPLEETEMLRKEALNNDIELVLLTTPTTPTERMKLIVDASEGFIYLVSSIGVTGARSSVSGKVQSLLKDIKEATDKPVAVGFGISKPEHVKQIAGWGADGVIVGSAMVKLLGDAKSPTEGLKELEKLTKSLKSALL
T2 sequence (P14671 with tags, fused parts or gaps partner): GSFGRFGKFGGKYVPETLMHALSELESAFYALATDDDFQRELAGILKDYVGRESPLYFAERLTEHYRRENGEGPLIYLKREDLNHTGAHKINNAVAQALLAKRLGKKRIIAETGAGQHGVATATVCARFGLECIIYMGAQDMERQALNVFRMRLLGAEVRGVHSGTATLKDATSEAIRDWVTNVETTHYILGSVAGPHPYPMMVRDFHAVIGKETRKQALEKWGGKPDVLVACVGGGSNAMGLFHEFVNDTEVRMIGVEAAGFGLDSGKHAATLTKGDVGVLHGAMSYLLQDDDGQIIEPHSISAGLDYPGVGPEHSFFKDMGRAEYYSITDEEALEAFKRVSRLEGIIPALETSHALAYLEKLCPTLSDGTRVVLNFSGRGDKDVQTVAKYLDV
Kind of assay: TSα assay with recombinant plant TSα and TSβ expressed in E. coli. The format is biochemical. Conditions: inhibitor 82 uM; pAC 758 (1.5 ug) + pAC 755 (3 ug). How it is done: The plant TS proteins were expressed as fusion proteins with glutathione transferase (GST) to facilitate purification. After purification, the GST protein was cleaved off with thrombin as described above before the plant TS assays were performed. After thrombin cleavage, both TSα and TSβ-subunit proteins retained a Gly-Ser residue on the N-terminal of the protein in addition to the TS sequence. […]
The TSα enzyme assay was conducted as described in Example 3 for Salmonella TSα.
Specifically, phenylthiophosphonic acid compounds were used. The TSα assay conditions were as described for Salmonella TSα in Example 3 except that recombinant plant proteins were used instead of the Salmonella enzyme.

In a further assay the target is TSα subunit. Conditions: TSα subunit reaction; cited from earlier work.
Assay [2] concerns a variety of dicotyledonous and monocotyledonous plants. Kind of assay: Postemergence greenhouse herbicidal test. The format is in vivo. Conditions: post emergence greenhouse test, 4 kg/ha. How it is done: The herbicidal activity of the compounds was tested as described in the U.S. Pat. No. 5,635,449. […] In the tests, seedling plants are grown in jiffy flats for about two weeks. The test compounds are dispersed in 50/50 acetone/water mixtures containing 0.5% TWEEN®20, a polyoxyethylene sorbitan monolaurate surfactant of Atlas Chemical Industries, in sufficient quantities to provide the equivalent of about 1.0 kg to 8.0 kg per hectare of test compound when applied to the plants through a spray nozzle operating at 40 psi for a predetermined time. After spraying, the plants are placed on greenhouse benches and are cared for in the usual manner, commensurate with conventional greenhouse practices. From four to five weeks after treatment, the seedling plants are examined and rate according to the rating system set forth below.

A further assay has as its system TSβ (Spinacea enzyme). Kind of assay: TSβ assay with partially purified spinach enzyme. Conditions: determined qualitatively. Also noted: key: the increase in the number of “+” corresponds to the increase of inhibition; +++++: the increase in the number of “+” corresponds to the increase of inhibition; +++++++: the increase in the number of “+” corresponds to the increase of inhibition. The format is biochemical, Spinacea oleracea. The protocol:
The assay was conducted in microfuge tubes by the TSβ reaction (indole+L-serine→L-tryptophan+H2O). 100 μL of extract was mixed with 150 μL of 0.4 mM indole, 80 mM serine, 0.03 mM PLP, 0.1 M Tris-Cl buffer pH 7.8, containing 7.5 μL of saturated NaCl. The mixture was incubated at 21° C. for increasing time intervals, from 10 min to several hours. The reaction was terminated by adding 25 μL 1 N NaOH, then 1 mL toluene with mixing, and then centifuging in a microfuge 2 min at 10,000×G to partition remaining indole into the toluene phase and away from the enzyme. Remaining indole was subsequently partitioned into the indole reagent phase and reacted with dimethylaminobenzaldehyde: 500 μL of the toluene layer from the microfuge tubes was mixed with 1 ml of the indole reagent in another tube and allowed to separate for 20 min, then the lower layer was carefully pipetted into a cuvette and its absorbance measured at 540 nm. This part of the assay was conducted as known in the art.
A unique microtiter plate method was also developed to streamline the partitioning steps and data collection. First, the TSβ reaction was performed as above in microfuge tubes. […] The plate was covered by a mylar sheet (to protect the plate reader and avoid evaporation) and absorbance was monitored on the plate reader at 535 nm. […]
TS was partially purified from spinach for use in the TSβ assay. The greatest degree of purification was achieved by homogenizing the tissue, preparing the 30-50% ammonium sulfate fraction and freezing it, thawing it, and applying the dissolved precipitate to an FPLC column (Waters SW300, Waters Corporation, Franklin, Mass.) to separate the TS activity (measured as TSβ) from the bulk of the protein. […] Because of the low yield of the assay of partially purified plant TS, endogenous enzyme was measured in crude extracts or in enzyme preparations involving one or two purification steps. […]

Where two headings read alike, the source gives them in different places. Marks after values point to notes of the source that are not given here.

Results on three compounds are retold here after patent US20050050594A1, “Tryptophan synthase as a site of herbicide action” (priority 1999, published 2005).

T1 sequence (P00929 whole entry): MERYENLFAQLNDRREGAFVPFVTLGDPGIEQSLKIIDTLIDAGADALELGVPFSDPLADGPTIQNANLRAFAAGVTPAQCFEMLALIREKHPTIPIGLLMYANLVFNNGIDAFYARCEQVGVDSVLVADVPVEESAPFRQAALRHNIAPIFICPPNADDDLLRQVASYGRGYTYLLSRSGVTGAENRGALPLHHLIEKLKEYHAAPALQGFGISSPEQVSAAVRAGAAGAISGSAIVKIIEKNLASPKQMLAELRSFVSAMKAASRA
T1 sequence (P0A2K1 2-397, further chain): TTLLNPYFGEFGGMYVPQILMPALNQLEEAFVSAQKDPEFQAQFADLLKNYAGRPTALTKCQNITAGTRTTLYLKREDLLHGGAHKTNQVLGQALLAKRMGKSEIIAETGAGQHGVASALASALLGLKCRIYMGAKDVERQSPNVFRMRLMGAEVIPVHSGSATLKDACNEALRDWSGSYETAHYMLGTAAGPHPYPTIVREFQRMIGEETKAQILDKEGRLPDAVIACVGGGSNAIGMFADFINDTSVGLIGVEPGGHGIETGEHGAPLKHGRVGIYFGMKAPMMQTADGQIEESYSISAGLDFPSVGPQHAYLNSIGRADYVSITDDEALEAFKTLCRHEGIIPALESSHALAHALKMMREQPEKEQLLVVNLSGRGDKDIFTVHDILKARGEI

As for `O=P(O)(O)OCCCc1c[nH]c2ccccc12` [Compound 1, indole-3-propanol phosphate, reference compound], the IC50 in assay [1] (I50 TS, TSα reaction of the highly purified Salmonella typhimiurium holoenzyme) was 5000 nM; in assay [1] (I50 for IPP used as a standard in all tests, TSα reaction, 100 μM IGP) it was 1000 to 2000 nM; in assay [1] (TS inhibition I50, TSα reaction, Salmonella holoenzyme, 30 min at 37° C., 100 μM IGP) it was 2000 nM. Moreover, at Arabidopsis TS enzyme, the “TSα activity, % of control” value is given as 35.9 % of control. Besides, the “TSα activity, relative Vmax” value at Arabidopsis TS enzyme was 2.223 mOD/min. The Ki (in general, the dissociation constant of the complex between target and ligand, obtained from inhibition or displacement) at TSα subunit is 15000 nM. Further, in assay [2], the Herbicidal Activity entry was “inactive”.

For `Cc1ccc(SCCCCP(=O)(O)O)c(N)c1` [Phosphonic acid,-{4-[(2-amino-p-tolyl)thio]butyl}-], the IC50 in assay [1] (TSα activity (Salmonella enzyme) I50) came to 1000 nM. Further, the “TSβ (Spinacea enzyme), relative activity” value in the assay on TSβ (Spinacea enzyme) is on record as “+++++++*”.

For the compound “Phosphonic acid, {4-[(o-aminophenyl)thio]butyl}-, compound with cyclohexylamine (1:2)”, the IC50 came to 400 nM in assay [1] (TSα reaction, Salmonella holoenzyme, 30 min at 37° C., 100 μM IGP, read-out: TS inhibition I50) and 550 nM in assay [1] (read-out: TSα activity (Salmonella enzyme) I50). For the same compound, the “TSβ (Spinacea enzyme), relative activity” value with TSβ (Spinacea enzyme) was “+++++”.
